Here are results for eleven compounds from PubChem BioAssay (NCI).

Each structure is given as a SMILES string. “And” between values parts separate entries of the source, which are not always exact repeats. Equal values may be shown once.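 Briefly, cells in 96-well plates were exposed to five compound concentrations for 48 h, and endpoints were estimated by linear interpolation. Abbreviation: GI50, concentration required for 50% inhibition of growth. At the TGI there is no net growth.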

Some test systems named below: HCT-15 colon; NCI-H226 lung; HOP-62 NSCLC; SF-295 CNS; SK-MEL-5 melanoma; HCC-2998 colon; OVCAR-3 ovarian; UO-31 renal; SN12C renal; EKVX NSCLC; CAKI-1 renal; SNB-19 CNS; SF-539 CNS.
Common to all, as to experiment: NCI tumour cell line growth inhibition, 48 h

Consider `NC1=NC(OCC2(CO)CCC2)C=C(NCC2(CO)CCC2)N1` (stereo not given), for which the TGI in the assay on HCT-15 colon, in the assay on NCI-H226 lung, in the assay with HOP-62 NSCLC, with SF-295 CNS, with SK-MEL-5 melanoma and in the assay with HCC-2998 colon was more than 100 µM each time. Moreover, the TGI in the assay on OVCAR-3 ovarian, with UO-31 renal, in the assay on SN12C renal, in the assay on EKVX NSCLC, in the assay on CAKI-1 renal and in the assay on SNB-19 CNS was more than 100 µM throughout.

Consider `COc1cc2[nH]c(-c3cccc(N(C)C)c3)cc(=O)c2cc1OC`, for which the TGI in the assay on HCT-15 colon is more than 64.6 µM; in the assay on SF-539 CNS it was more than 21.3 µM; with NCI-H226 lung it was more than 25.3 µM; in the assay on HOP-62 NSCLC, more than 100 µM; in the assay with SF-295 CNS, more than 21.4 µM; in the assay on SK-MEL-5 melanoma it was more than 100 µM. In addition, the TGI with HCC-2998 colon was 7.5 µM; in the assay with UO-31 renal, more than 100 µM; in the assay on SN12C renal, more than 100 µM; in the assay on EKVX NSCLC, more than 100 µM; in the assay with SNB-19 CNS, more than 100 µM.

Turning to `Cc1ccc(S(=O)(=O)NNC(=S)Nc2cccc3ccccc23)cc1`, the TGI in the assay with HCT-15 colon was more than 100 µM; with SF-539 CNS, more than 100 µM; in the assay with NCI-H226 lung, 95.2 µM; with HOP-62 NSCLC, more than 100 µM; in the assay with SF-295 CNS it was more than 100 µM; in the assay with SK-MEL-5 melanoma, 33.1 µM. Besides, the TGI in the assay with HCC-2998 colon, in the assay on UO-31 renal, in the assay on SN12C renal, with EKVX NSCLC, in the assay with CAKI-1 renal and in the assay on SNB-19 CNS was more than 100 µM each time.

For the compound `CCCCc1c2c(nc3c1CCC/C3=C\c1ccccc1)C(=O)C(CN(C)C)CC2` (stereo not given), the TGI worked out at 20.7 µM in the assay on HCT-15 colon; 36.5 µM in the assay with SF-539 CNS; 51.6 µM in the assay on NCI-H226 lung; 34.1 µM in the assay with HOP-62 NSCLC; 33.3 µM with SF-295 CNS; 30.9 µM in the assay with SK-MEL-5 melanoma. The TGI amounted to 54.7 µM in the assay on HCC-2998 colon; 39.9 µM with OVCAR-3 ovarian; 33.7 µM in the assay with UO-31 renal; 43.1 µM in the assay with SN12C renal; 36.1 µM in the assay on EKVX NSCLC; 32.6 µM in the assay with SNB-19 CNS.

With `C=CCOCn1ccc(=O)[nH]c1=O`, the TGI in the assay on HCT-15 colon, with SF-539 CNS, with NCI-H226 lung, in the assay on HOP-62 NSCLC, with SF-295 CNS and in the assay with SK-MEL-5 melanoma was more than 100 µM throughout. The TGI in the assay on HCC-2998 colon, in the assay with UO-31 renal, in the assay with SN12C renal, in the assay with EKVX NSCLC, in the assay with CAKI-1 renal and with SNB-19 CNS was more than 100 µM throughout.

Turning to `O=c1cc(-c2cccc(OC(F)(F)F)c2)[nH]c2cc3c(cc12)OCO3`, the TGI in the assay on HCT-15 colon is 2.66 µM; with SF-539 CNS, 0.204 µM; in the assay with NCI-H226 lung, 9.16 µM; in the assay on HOP-62 NSCLC it was more than 47.8 µM; in the assay with SK-MEL-5 melanoma, 0.336 µM; in the assay on HCC-2998 colon it was 0.157 µM. The TGI in the assay on OVCAR-3 ovarian was 3.92 µM; in the assay on SN12C renal it was more than 100 µM; in the assay with EKVX NSCLC, more than 100 µM; in the assay with CAKI-1 renal, more than 100 µM; with SNB-19 CNS, more than 100 µM.

For `O=C1CCCC2=C1CC1=C(CCCC1=O)N2c1cccc2ccccc12`, the TGI with HCT-15 colon, in the assay on SF-539 CNS, in the assay with NCI-H226 lung, in the assay with SK-MEL-5 melanoma, with HCC-2998 colon and in the assay with OVCAR-3 ovarian was more than 100 µM in each case. Besides, the TGI in the assay with UO-31 renal, in the assay on SN12C renal, in the assay on EKVX NSCLC, in the assay with CAKI-1 renal and with SNB-19 CNS was more than 100 µM each time.

Regarding `COc1ccc2c3ccc4c(c3n(C)c2c1)C(=O)c1ccccc1C4=O`, the TGI in the assay on HCT-15 colon, with SF-539 CNS, with NCI-H226 lung, in the assay on HOP-62 NSCLC, with SF-295 CNS and in the assay on SK-MEL-5 melanoma was more than 100 µM in each case. In addition, the TGI in the assay with HCC-2998 colon, in the assay with UO-31 renal, in the assay with SN12C renal, with EKVX NSCLC and in the assay with SNB-19 CNS was more than 100 µM each time.

In the case of `CCOC(=O)n1cncc1CC(NC(=O)Cc1c(C(=O)C=C(C)C)[nH]c2ccccc12)C(=O)OC` (stereo not given), the TGI was 59.6 µM with HCT-15 colon; 46.2 µM in the assay on SF-539 CNS; 41.3 µM in the assay on NCI-H226 lung; 35.5 µM in the assay with SF-295 CNS; 37.5 µM with SK-MEL-5 melanoma; 32.2 µM with HCC-2998 colon. Further, the TGI in the assay with OVCAR-3 ovarian came to 38.9 µM; in the assay with UO-31 renal it was 32.3 µM; in the assay on SN12C renal, 39.5 µM; with EKVX NSCLC, 33.9 µM; in the assay on CAKI-1 renal, 34.8 µM; with SNB-19 CNS, 30.5 µM.

Regarding `Cn1c2nc3ccccc3c-2cc2ccccc21`, the GI50 in the assay on HCT-15 colon was 1.14 µM and 4.06 µM; in the assay on NCI-H226 lung it was 3.46 µM and 11.2 µM; in the assay on SK-MEL-5 melanoma, 4 µM and 8.37 µM; in the assay with UO-31 renal, 2.6 µM and 5.47 µM; in the assay with SN12C renal, 3.14 µM and 6.46 µM; in the assay with CAKI-1 renal, 2.6 µM and 5.52 µM. Further, in the assay with SNB-19 CNS, the GI50 is 5.94 µM and 14.7 µM. The TGI in the assay on HCT-15 colon is 7.3 µM and 23.4 µM; with SF-539 CNS, 16 µM and 17.5 µM; with NCI-H226 lung, 19.3 µM and 31.5 µM; in the assay on SF-295 CNS, > 40.5 µM and 20.8 µM; in the assay with SK-MEL-5 melanoma it was 16.8 µM and 24 µM; with HCC-2998 colon, 17.6 µM. The TGI with OVCAR-3 ovarian is > 46.2 µM and 28 µM; with UO-31 renal, 11.6 µM and 37.7 µM; with SN12C renal, 36.3 µM and 34.9 µM; in the assay on EKVX NSCLC it was 15.6 µM and 33.9 µM; in the assay with CAKI-1 renal it was 8.7 µM and 37.1 µM; in the assay with SNB-19 CNS, more than 100 µM.

Turning to `COC(=O)[C@H](Cc1ccccc1)NC(=O)N1CCN(C(=O)N[C@@H](Cc2ccccc2)C(=O)OC)CCN(C(=O)N[C@@H](Cc2ccccc2)C(=O)OC)CC1`, the TGI in the assay with HCT-15 colon, in the assay with NCI-H226 lung, in the assay on HOP-62 NSCLC, with SF-295 CNS, in the assay with SK-MEL-5 melanoma and with HCC-2998 colon was more than 100 µM throughout. For the same compound, the TGI in the assay with OVCAR-3 ovarian, in the assay with UO-31 renal, in the assay on SN12C renal, in the assay on EKVX NSCLC, in the assay with CAKI-1 renal and in the assay on SNB-19 CNS was more than 100 µM in each case.
